Columns and labels:
Caspase-1 (Homo sapiens) [1] = target: T1, Caspase-1 (Homo sapiens) (UniProt P29466); assay: Inhibition of IL-1 beta converting enzyme
T1 sequence (whole entry): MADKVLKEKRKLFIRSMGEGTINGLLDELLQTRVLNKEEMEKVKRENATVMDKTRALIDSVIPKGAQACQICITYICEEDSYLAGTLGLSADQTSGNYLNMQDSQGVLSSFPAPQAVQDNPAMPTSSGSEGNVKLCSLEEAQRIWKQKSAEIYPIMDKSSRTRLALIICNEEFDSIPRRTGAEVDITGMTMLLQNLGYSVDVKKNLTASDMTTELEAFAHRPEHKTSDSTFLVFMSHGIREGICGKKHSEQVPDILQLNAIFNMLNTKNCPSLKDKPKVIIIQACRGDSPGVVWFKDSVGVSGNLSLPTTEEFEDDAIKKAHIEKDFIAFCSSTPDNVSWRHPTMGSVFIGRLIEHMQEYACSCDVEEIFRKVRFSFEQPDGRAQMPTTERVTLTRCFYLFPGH

Caspase-1 (Homo sapiens) [2] = target: T1, Caspase-1 (Homo sapiens); assay: k obs/[I] against Interleukin-1-beta Converting enzyme (ICE) was determined.
Caspase-1 = target: T2, Caspase-1 (Homo sapiens, UniProt P29466); assay: Binding affinity against IL-1 beta converting enzyme
T2 sequence (P29466 whole entry): T1 sequence (whole entry)

k obs / 1 (Caspase-1 (Homo sapiens) [1]) [M⁻¹ s⁻¹]	Structure (SMILES)	other results
< 1000	O=C(O)C[C@@H](C(=O)COC(=O)c1c(Cl)cccc1Cl)C(=O)NCCc1ccccc1	–
7400	O=C(O)C[C@H](NC(=O)OCc1ccccc1)C(=O)COC(=O)c1c(Cl)cccc1Cl	–
10000	C[C@H](NC(=O)[C@@H](C)NC(=O)OCc1ccccc1)C(=O)N[C@@H](CC(=O)O)C(=O)COC(=O)c1c(Cl)cccc1Cl	–
< 1000	C[C@H](C(=O)O)[C@H](NC(=O)OCc1ccccc1)C(=O)COC(=O)c1c(Cl)cccc1Cl	–
< 1000	O=C(N[C@@H](Cc1nnn[nH]1)C(=O)COC(=O)c1c(Cl)cccc1Cl)OCc1ccccc1	–
< 1000	O=C(O)CCC[C@H](NC(=O)OCc1ccccc1)C(=O)COC(=O)c1c(Cl)cccc1Cl	–
< 1000	COC(=O)NCC(=O)N[C@@H](CC(=O)O)C(=O)COC(=O)c1c(Cl)cccc1Cl	–
< 1000	O=C(O)C[C@H](NC(=O)OCc1ccccc1)C(=O)CSc1c(Cl)cccc1Cl	–
7000	COC(=O)N[C@@H](C)C(=O)N[C@@H](CC(=O)O)C(=O)COC(=O)c1c(Cl)cccc1Cl	–
< 1000	O=C(O)C[C@H](NC(=O)OCc1ccccc1)C(=O)COc1c(Cl)cccc1Cl	–
2200	COC(=O)N[C@@H](Cc1c[nH]cn1)C(=O)N[C@@H](CC(=O)O)C(=O)COC(=O)c1c(Cl)cccc1Cl	–
–	O=C(O)CC[C@H](NC(=O)OCc1ccccc1)C(=O)COC(=O)c1c(Cl)cccc1Cl	k obs / 1 (Caspase-1 (Homo sapiens) [2]): < 1000 M⁻¹ s⁻¹
116000	C[C@H](NC(=O)OCc1ccccc1)C(=O)N[C@@H](C)C(=O)N[C@@H](CC(=O)O)C(=O)COC(=O)c1c(Cl)cccc1Cl	–
41000	CC(C)[C@H](NC(=O)OCc1ccccc1)C(=O)N[C@@H](CC(=O)O)C(=O)COC(=O)c1c(Cl)cccc1Cl	–
2500	COC(=O)N[C@@H](Cc1cccs1)C(=O)N[C@@H](CC(=O)O)C(=O)COC(=O)c1c(Cl)cccc1Cl	–
< 1000	CN(C(=O)OCc1ccccc1)[C@@H](CC(=O)O)C(=O)COC(=O)c1c(Cl)cccc1Cl	–
< 1000	O=C(O)C[C@@H](CC(=O)COC(=O)c1c(Cl)cccc1Cl)NC(=O)OCc1ccccc1	–
–	CC(C)[C@H](NC(=O)OCc1ccccc1)C(=O)N[C@@H](C)C(=O)N[C@@H](C=O)CC(=O)O	Ki (Caspase-1): 15 nM
< 1000	O=C(O)C[C@H](OC(=O)OCc1ccccc1)C(=O)COC(=O)c1c(Cl)cccc1Cl	–
< 1000	C[C@@H](C(=O)O)[C@H](NC(=O)OCc1ccccc1)C(=O)COC(=O)c1c(Cl)cccc1Cl	–
< 1000	O=C(O)C[C@@H](CCOC(=O)c1c(Cl)cccc1Cl)NC(=O)OCc1ccccc1	–
233000	C[C@H](NC(=O)[C@H](Cc1ccccc1)NC(=O)OCc1ccccc1)C(=O)N[C@@H](CC(=O)O)C(=O)COC(=O)c1c(Cl)cccc1Cl	–
< 1000	O=C(O)C[C@H](NC(=O)OCc1ccccc1)C(O)COC(=O)c1c(Cl)cccc1Cl (stereo partly specified)	–
< 1000	C[C@@H](NC(=O)OCc1ccccc1)C(=O)N[C@@H](CC(=O)O)C(=O)COC(=O)c1c(Cl)cccc1Cl	–
4900	COC(=O)N[C@H](C(=O)N[C@@H](CC(=O)O)C(=O)COC(=O)c1c(Cl)cccc1Cl)C(C)C	–
–	CC(C)[C@H](NC(=O)OCc1ccccc1)C(=O)N[C@@H](C)C(=O)N[C@H](C=O)CC(=O)O	Ki (Caspase-1): 15 nM

From ChEMBL document CHEMBL1149962, “Structural and stereochemical requirements of time-dependent inactivators of the interleukin-1 converting enzyme” (Bioorg Med Chem Lett, 1995)
